For assay [1], the target named is T1, human recombinant histamine H1 receptor (Homo sapiens, UniProt P35367).
T1 construct: expressed in transfected cells; host or cells: CHO cells
As to the kind of experiment: Histamine H1 radioligand binding ([3H]Pyrilamine). The procedure, abridged: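 Binding to the human recombinant histamine H1 receptor, expressed in CHO cells, was measured in a modified Tris-HCl buffer (50 mM Tris-HCl, pH 7.4, 2 mM MgCl2, 100 mM NaCl, 250 mM Sucrose). Compounds were incubated with 1.2 nM [3H]Pyrilamine for 180 minutes at 25° C, with 1 μM pyrilamine defining non-specific binding. After filtration and washing, filter counts gave percent inhibition of specific binding.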

Assay [2] deals with T2, human recombinant adrenergic α1D receptor (Homo sapiens, UniProt P25100).
T2 construct: expressed in transfected cells; host or cells: HEK-293 cells
T2 sequence (P25100 1-572): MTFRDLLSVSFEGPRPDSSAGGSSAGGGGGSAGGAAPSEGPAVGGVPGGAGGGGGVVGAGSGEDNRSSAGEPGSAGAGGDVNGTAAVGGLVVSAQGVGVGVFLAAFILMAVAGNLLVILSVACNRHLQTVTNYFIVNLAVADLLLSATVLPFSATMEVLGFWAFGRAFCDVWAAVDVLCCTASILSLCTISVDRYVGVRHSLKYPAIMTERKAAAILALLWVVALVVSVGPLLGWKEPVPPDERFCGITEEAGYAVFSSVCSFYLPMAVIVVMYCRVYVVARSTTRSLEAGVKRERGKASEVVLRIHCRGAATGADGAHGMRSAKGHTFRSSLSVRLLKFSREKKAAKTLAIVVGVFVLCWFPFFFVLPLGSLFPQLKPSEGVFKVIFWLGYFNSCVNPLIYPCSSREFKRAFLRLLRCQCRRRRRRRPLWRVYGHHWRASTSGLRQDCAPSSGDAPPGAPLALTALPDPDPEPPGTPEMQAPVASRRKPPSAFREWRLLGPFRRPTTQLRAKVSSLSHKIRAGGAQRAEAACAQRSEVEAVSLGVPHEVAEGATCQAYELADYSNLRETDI
As to the kind of experiment: Adrenergic α1D radioligand binding ([3H]Prozosin). The procedure:
To evaluate in radioligand binding assays the activity of compounds of the invention, human recombinant adrenergic a1D receptor expressed in human embryonic kidney (HEK-293) cells (Kenny, B. A. et al. Br. J. Pharmacol. 115(6):981, 1995) in a 50 mM Tris-HCl buffer, pH 7.4, was used. Compounds of invention were incubated with 0.6 nM [^3H]Prozosin for 60 minutes at 25° C. Non-specific binding was estimated in the presence of 10 μM phentolamine. Receptor proteins were filtered and washed, the filters were then counted to determine [^3H]Prozosin specifically bound. Compounds were screened at 1 μM or lower, using 1% DMSO as vehicle. Biochemical assay results are presented as the percent inhibition of specific binding in Table 4. Adrenergic a2A

Assay [3] concerns the target T3, human recombinant adrenergic α2A receptor (Homo sapiens, UniProt P08913).
T3 construct: expressed in transfected cells; host or cells: insect Sf9 cells
T3 sequence (P08913 1-465): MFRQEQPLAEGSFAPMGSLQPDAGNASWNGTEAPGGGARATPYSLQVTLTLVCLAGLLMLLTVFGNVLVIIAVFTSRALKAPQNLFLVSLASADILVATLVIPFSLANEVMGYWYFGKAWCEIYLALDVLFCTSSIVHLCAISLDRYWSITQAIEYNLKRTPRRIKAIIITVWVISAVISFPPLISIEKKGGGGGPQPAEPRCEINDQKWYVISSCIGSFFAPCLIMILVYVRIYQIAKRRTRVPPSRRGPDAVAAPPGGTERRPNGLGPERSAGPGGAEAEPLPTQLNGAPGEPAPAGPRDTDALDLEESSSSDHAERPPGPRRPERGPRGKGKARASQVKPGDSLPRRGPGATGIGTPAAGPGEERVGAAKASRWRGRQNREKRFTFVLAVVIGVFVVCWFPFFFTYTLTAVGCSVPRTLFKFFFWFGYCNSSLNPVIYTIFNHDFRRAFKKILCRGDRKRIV
As to the kind of experiment: Adrenergic α2A radioligand binding ([3H]MK-912). How it is done:
To evaluate in radioligand binding assays the activity of compounds of the invention, human recombinant adrenergic α2A receptor expressed in insect Sf9 cells (Uhlen S et al. J Pharmacol Exp Ther. 271:1558, 1994) in a modified Tris-HCl buffer (50 mM Tris-HCl, pH 7.4, 12.5 mM MgCl2, 2 mM EDTA) was used. Compounds of invention were incubated with 1 nM [^3H]MK-912 for 60 minutes at 25° C. MK912 is (2S-trans)-1,3,4,5′,6,6′,7,12b-octahydro-1′,3′-dimethyl-spiro[2H-benzofuro[2,3-a]quinolizine-2,4′(1′H)-pyrimidin]-2′(3′H)-one hydrochloride Non-specific binding was estimated in the presence of 10 μM WB-4101 (2-(2,6-Dimethoxyphenoxyethyl)aminomethyl-1,4-benzodioxane hydrochloride). Receptor proteins were filtered and washed, the filters were then counted to determine [^3H]MK-912 specifically bound. Compounds were screened at 1 μM or lower, using 1% DMSO as vehicle. Biochemical assay results are presented as the percent inhibition of specific binding in Table 4.

Where [4] appears, read: 1 μM, read-out: Binding data (Percentage Inhibition) Histamine Binding (1 μM) H1.
Setting [5] is: 1 h, read-out: Percent Inhibition of ligand binding Adrenergic (1 μM ligand conc.) α1D.
[6] abbreviates: 1 h, read-out: Percent Inhibition of ligand binding Adrenergic (1 μM ligand conc.) α2A.

Like-named read-outs stand apart in the source and are kept apart here.

T1 sequence (P35367 whole entry): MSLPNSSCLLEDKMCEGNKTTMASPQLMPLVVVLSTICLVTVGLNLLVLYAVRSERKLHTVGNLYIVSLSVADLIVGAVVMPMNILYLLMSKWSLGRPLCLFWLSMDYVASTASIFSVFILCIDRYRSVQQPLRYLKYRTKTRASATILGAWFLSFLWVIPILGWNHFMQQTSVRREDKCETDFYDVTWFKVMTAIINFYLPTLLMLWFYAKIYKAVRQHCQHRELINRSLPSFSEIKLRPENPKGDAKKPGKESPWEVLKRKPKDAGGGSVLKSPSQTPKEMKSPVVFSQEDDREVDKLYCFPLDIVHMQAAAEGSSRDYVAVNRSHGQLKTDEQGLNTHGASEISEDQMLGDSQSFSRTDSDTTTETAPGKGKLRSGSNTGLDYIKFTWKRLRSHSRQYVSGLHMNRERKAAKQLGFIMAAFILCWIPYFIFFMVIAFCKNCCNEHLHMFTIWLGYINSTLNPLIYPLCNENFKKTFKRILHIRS

Usually inhibition stands for the relative decrease from the control value, in per cent. As to `CN1CCc2c(n(CC(=O)N(C)C3CCCCC3)c3ccc(Cl)cc23)C1` [Compound 18, 2-(6-chloro-1,2,3,4-tetrahydro-2-methylpyrido[3,4-b]indol-9-yl)-N-cyclohexyl-N-methylacetamide], the inhibition at 1 µM in assay [1] (setting [4]) was determined as 10%; in assay [2] (setting [5]), 21%; in assay [3] (setting [6]), 4%.

As to `Cc1ccc2c(c1)c1c(n2/C=C/c2ccccc2)CN(C)CC1` [Compound 92], the inhibition at 1 µM stood at 99% in assay [1] (setting [4]); 99% in assay [1] (compound concentration 1 μM, read-out: Percentage inhibition of ligand binding to H1 receptor); 97% in assay [2] (setting [5]); 97% in assay [2] (compound concentration 1 μM, read-out: Percentage inhibition of ligand binding to Adrenergic α1D receptor); 96% in assay [3] (setting [6]); 96% in assay [3] (compound concentration 1 μM, read-out: Percentage inhibition of ligand binding to Adrenergic α2A receptor). Further, the inhibition at 0.03 µM in assay [1] (compound concentration 0.03 μM, read-out: Percentage inhibition of ligand binding to H1 receptor) is 67%. The inhibition at 0.1 µM in assay [1] (compound concentration 0.1 μM, read-out: Percentage inhibition of ligand binding to H1 receptor) stood at 91%. Further, the inhibition at 0.3 µM in assay [1] (compound concentration 0.3 μM, read-out: Percentage inhibition of ligand binding to H1 receptor) turned out to be 96%.

Regarding `CCC1c2c(c3cc(C)ccc3n2C(=O)Cc2ccc(F)cc2)CCN1C` (stereo not drawn) [Compound 159], the inhibition at 1 µM in assay [1] (setting [4]) was 5%; in assay [2] (setting [5]), 25%; in assay [3] (setting [6]) it was 71%.

Regarding `CCC1c2c(c3cc(Cl)ccc3n2CCc2ccc(F)cc2)CCN1C` (stereo not drawn) [Compound 78], the figures for the inhibition at 1 µM in assay [1] (setting [4]), in assay [2] (setting [5]) and in assay [3] (setting [6]) were 71%, 42% and 93%, respectively.

For the molecule `COC(=O)Cn1c2c(c3cc(Cl)ccc31)CCN(C)C2` [Compound 54, methyl 2-(6-chloro-2-methyl-3,4-dihydro-1H-pyrido[3,4-b]indol-9(2H)-yl)acetate], the inhibition at 1 µM turned out to be 5% in assay [1] (setting [4]), 11% in assay [2] (setting [5]) and 4% in assay [3] (setting [6]).

Turning to `Cc1ccc2c(c1)c1c(n2CC(O)c2ccccc2)CN(C)CC1` (stereo not drawn) [Compound 67], the figures for the inhibition at 1 µM in assay [1] (setting [4]), in assay [2] (setting [5]) and in assay [3] (setting [6]) were 35%, 85% and 85%, respectively.

As for `C/C(=C\n1c2c(c3cc(Cl)ccc31)CCN(C)C2C)c1ccc(Cl)cc1` (stereo not drawn) [Compound 99, 6-chloro-9-(2-(4-chlorophenyl)prop-1-enyl)-1,2-dimethyl-2,3,4,9-tetrahydro-1H-pyrido[3,4-b]indole], the inhibition at 1 µM in assay [1] (setting [4]) stood at 65%; in assay [2] (setting [5]) it was 20%; in assay [3] (setting [6]), 59%.

For the molecule `CN1CCc2c(n(CC(=O)N3CCCC3)c3ccc(Cl)cc23)C1` [Compound 40, 2-(6-chloro-1,2,3,4-tetrahydro-2-methylpyrido[3,4-b]indol-9-yl)-1-(pyrrolidin-1-yl)ethanone], the inhibition at 1 µM in assay [1] (setting [4]) stood at 7%; in assay [2] (setting [5]), 3%; in assay [3] (setting [6]), 1%.

As for `C/C(=C/n1c2c(c3cc(Cl)ccc31)CCN(C)C2C)c1ccccc1F` (stereo not drawn) [Compound 167], the inhibition at 1 µM in assay [1] (setting [4]) worked out at 64%; in assay [2] (setting [5]), 36%; in assay [3] (setting [6]), 92%.

For `Cc1ccc(CCCn2c3c(c4cc(Cl)ccc42)CCN(C)C3)cn1` [Compound 56, 6-chloro-2-methyl-9-(3-(6-methylpyridin-3-yl)propyl)-2,3,4,9-tetrahydro-1H-pyrido[3,4-b]indole], the inhibition at 1 µM in assay [1] (setting [4]) came to 30%; in assay [2] (setting [5]), 16%; in assay [3] (setting [6]) it was 7%.

On to `CN1CCc2c(n(CC(=O)O)c3ccc(Cl)cc23)C1` [Compound 52, 2-(6-chloro-1,2,3,4-tetrahydro-2-methylpyrido[3,4-b]indol-9-yl)acetic acid], for which the inhibition at 1 µM in assay [1] (setting [4]) is 3%; in assay [2] (setting [5]), -11%; in assay [3] (setting [6]) it was 4%.

As for `CC(C)CCN(C)C(=O)Cn1c2c(c3cc(Cl)ccc31)CCN(C)C2` [Compound 14, 2-(6-chloro-1,2,3,4-tetrahydro-2-methylpyrido[3,4-b]indol-9-yl)-N-isopentyl-N-methylacetamide], the inhibition at 1 µM in assay [1] (setting [4]) was found to be 0%; in assay [2] (setting [5]) it was 33%; in assay [3] (setting [6]) it was 19%.

Take `Cc1ccc2c(c1)c1c(n2CC(=O)N2CCCCC2)CN(C)CC1` [Compound 57, 2-(2,6-dimethyl-3,4-dihydro-1H-pyrido[3,4-b]indol-9(2H)-yl)-1-(piperidin-1-yl)ethanone]: the values for the inhibition at 1 µM in assay [1] (setting [4]), in assay [2] (setting [5]) and in assay [3] (setting [6]) were 0%, 77% and 4%, respectively.

As to `CN1CCc2c(n(CC(C)(O)c3ccc(F)cc3)c3ccc(Cl)cc23)C1` (stereo not drawn) [Compound 62, 1-(6-chloro-2-methyl-3,4-dihydro-1H-pyrido[3,4-b]indol-9(2H)-yl)-2-(4-fluorophenyl)propan-2-ol], the inhibition at 1 µM in assay [1] (setting [4]) was determined as 48%; in assay [2] (setting [5]) it was 44%; in assay [3] (setting [6]), 90%.

On to `CN1CCc2c(n(CC(=O)N3CCNCC3)c3ccc(Cl)cc23)C1` [Compound 55, 2-(6-chloro-2-methyl-3,4-dihydro-1H-pyrido[3,4-b]indol-9(2H)-yl)-1-(piperazin-1-yl)ethanone], for which the inhibition at 1 µM in assay [1] (setting [4]) turned out to be 90%; in assay [2] (setting [5]), 10%; in assay [3] (setting [6]) it was 10%.

`CCC1c2c(c3cc(Cl)ccc3n2CC(C)(O)c2ccc(F)cc2)CCN1C` (stereo not drawn) [Compound 79]: the inhibition at 1 µM in assay [1] (setting [4]) came to 50%; in assay [2] (setting [5]), 17%; in assay [3] (setting [6]) it was 92%.

`COC(=O)Cn1c2c(c3cc(C)ccc31)CCN(C)C2` [Compound 21, methyl 2-(1,2,3,4-tetrahydro-2,6-dimethylpyrido[3,4-b]indol-9-yl)acetate]: the inhibition at 1 µM in assay [1] (setting [4]) is 3%; in assay [2] (setting [5]) it was -7%; in assay [3] (setting [6]) it was 0%.

As for `CN1CCc2c(n(CC(=O)NC3CCCCC3)c3ccc(Cl)cc23)C1` [Compound 17, 2-(6-chloro-1,2,3,4-tetrahydro-2-methylpyvrido[3,4-b]indol-9-yl)-N-cyclohexylacetamide], the inhibition at 1 µM in assay [1] (setting [4]) was determined as 54%; in assay [2] (setting [5]), 18%; in assay [3] (setting [6]), 17%.

Consider `Cc1ccc2c(c1)c1c(n2CC(O)c2ccccc2F)CN(C)CC1` (stereo not drawn) [Compound 60, 2-(2,6-dimethyl-3,4-dihydro-1H-pyrido[3,4-b]indol-9(2H)-yl)-1-(2-fluorophenyl)ethanol], for which the inhibition at 1 µM amounted to 19% in assay [1] (setting [4]), 29% in assay [2] (setting [5]) and 79% in assay [3] (setting [6]).

In the case of `C/C(=C\n1c2c(c3cc(Cl)ccc31)CCN(C)C2C)c1ccccc1F` (stereo not drawn) [Compound 168], the inhibition at 1 µM came out at 85% in assay [1] (setting [4]), 38% in assay [2] (setting [5]) and 74% in assay [3] (setting [6]).

Source of the values: patent US9260429B2, “Pyrido[3,4-B]indoles and methods of use” (Medivation Technologies, Inc., priority 2008, dated 2016).
